Results as given in ChEMBL document CHEMBL4017540, “Synthesis of Potent and Selective Inhibitors of Aldo-Keto Reductase 1B10 and Their Efficacy against Proliferation, Metastasis, and Cisplatin Resistance of Lung Cancer Cells” (J Med Chem, 2017).
Where a chain is given by its changes, count along the chain named.

What was measured:
[1] = target: T1, Aldo-keto reductase family 1 member B1 (Homo sapiens, UniProt P15121); experiment: Inhibition of recombinant human AKR1B1 using pyridine-3-aldehyde as substrate
[2] = target: T2, Aldo-keto reductase family 1 member B10 (Homo sapiens, UniProt O60218); experiment: Inhibition of recombinant human AKR1B10 using pyridine-3-aldehyde as substrate
T2 sequence (O60218 whole entry): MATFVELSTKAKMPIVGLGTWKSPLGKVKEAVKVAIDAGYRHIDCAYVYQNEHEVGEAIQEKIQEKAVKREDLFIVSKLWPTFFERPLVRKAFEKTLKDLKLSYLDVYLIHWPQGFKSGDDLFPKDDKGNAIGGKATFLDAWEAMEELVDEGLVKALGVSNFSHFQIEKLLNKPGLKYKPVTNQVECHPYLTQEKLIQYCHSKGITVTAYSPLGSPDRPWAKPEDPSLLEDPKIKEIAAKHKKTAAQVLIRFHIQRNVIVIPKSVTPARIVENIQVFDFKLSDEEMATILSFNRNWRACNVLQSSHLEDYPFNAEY

[3] = Competitive inhibition of recombinant human AKR1B10 Trp220Tyr mutant in presence of geraniol as substrate by Lineweaver-Burk plot method
[4] = Competitive inhibition of recombinant human AKR1B10 Gln303Ser mutant in presence of geraniol as substrate by Lineweaver-Burk plot method
[5] = target: T3, Aldo-keto reductase family 1 member C2 (Homo sapiens, UniProt P52895); experiment: Inhibition of recombinant human AKR1C2 using S-tetralol as substrate
T3 sequence (P52895 whole entry): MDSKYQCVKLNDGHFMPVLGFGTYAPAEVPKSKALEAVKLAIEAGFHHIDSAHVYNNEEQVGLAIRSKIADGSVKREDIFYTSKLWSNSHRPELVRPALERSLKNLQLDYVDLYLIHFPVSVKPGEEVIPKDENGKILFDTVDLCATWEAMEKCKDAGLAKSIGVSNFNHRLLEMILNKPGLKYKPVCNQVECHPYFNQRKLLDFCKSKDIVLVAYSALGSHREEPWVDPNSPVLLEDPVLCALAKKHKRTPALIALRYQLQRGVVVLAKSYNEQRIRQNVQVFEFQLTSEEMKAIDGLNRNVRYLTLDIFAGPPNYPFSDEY

[6] = target: T2, Aldo-keto reductase family 1 member B10; experiment: Competitive inhibition of recombinant human AKR1B10 in presence of geraniol as substrate by Lineweaver-Burk plot method
[7] = target: T4, Aldo-keto reductase family 1 member C4 (Homo sapiens, UniProt P17516); experiment: Inhibition of recombinant human AKR1C4 using S-tetralol as substrate
T4 sequence (P17516 whole entry): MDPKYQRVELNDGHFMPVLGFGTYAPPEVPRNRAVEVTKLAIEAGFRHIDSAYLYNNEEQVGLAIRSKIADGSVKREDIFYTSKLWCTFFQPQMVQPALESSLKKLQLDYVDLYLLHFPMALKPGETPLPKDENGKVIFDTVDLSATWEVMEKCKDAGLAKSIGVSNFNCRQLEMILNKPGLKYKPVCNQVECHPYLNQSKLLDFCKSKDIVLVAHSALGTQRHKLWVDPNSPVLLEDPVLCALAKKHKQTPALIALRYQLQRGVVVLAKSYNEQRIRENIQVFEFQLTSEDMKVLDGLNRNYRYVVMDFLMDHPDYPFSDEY

[8] = target: T5, Aldo-keto reductase family 1 member A1 (Homo sapiens, UniProt P14550); experiment: Inhibition of recombinant human AKR1A1 using pyridine-3-aldehyde as substrate
T5 sequence (P14550 whole entry): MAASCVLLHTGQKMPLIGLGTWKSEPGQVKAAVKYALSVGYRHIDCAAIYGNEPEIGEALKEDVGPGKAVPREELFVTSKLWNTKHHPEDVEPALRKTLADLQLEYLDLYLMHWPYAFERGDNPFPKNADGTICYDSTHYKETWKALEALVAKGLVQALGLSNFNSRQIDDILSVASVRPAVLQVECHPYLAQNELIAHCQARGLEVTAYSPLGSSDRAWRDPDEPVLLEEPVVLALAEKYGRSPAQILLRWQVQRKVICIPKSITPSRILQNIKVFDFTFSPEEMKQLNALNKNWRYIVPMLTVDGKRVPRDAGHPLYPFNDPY

[9] = target: T6, Aldo-keto reductase family 1 member C3 (Homo sapiens, UniProt P42330); experiment: Inhibition of recombinant human AKR1C3 using S-tetralol as substrate
T6 sequence (P42330 whole entry): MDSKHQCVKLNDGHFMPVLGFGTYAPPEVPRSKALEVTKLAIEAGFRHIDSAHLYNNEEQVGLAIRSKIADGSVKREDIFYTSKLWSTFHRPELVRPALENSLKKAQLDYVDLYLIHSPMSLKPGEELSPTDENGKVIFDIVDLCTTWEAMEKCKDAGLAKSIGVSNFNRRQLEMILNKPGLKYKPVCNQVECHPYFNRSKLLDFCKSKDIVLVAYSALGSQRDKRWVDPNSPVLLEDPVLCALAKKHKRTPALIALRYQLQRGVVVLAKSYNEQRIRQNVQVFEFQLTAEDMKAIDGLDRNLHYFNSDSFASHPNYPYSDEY

[10] = Competitive inhibition of recombinant human AKR1B10 Lys125Leu mutant in presence of geraniol as substrate by Lineweaver-Burk plot method
[11] = target: T7, Aldo-keto reductase family 1 member C1 (Homo sapiens, UniProt Q04828); experiment: Inhibition of recombinant human AKR1C1 using S-tetralol as substrate
T7 sequence (Q04828 whole entry): T3 sequence (P52895 whole entry) with V38T, H47R, V54L, S87C, M151V, H170R, L172Q

[12] = Competitive inhibition of recombinant human AKR1B10 Val301Leu mutant in presence of geraniol as substrate by Lineweaver-Burk plot method
[13] = target: T8, Carbonyl reductase [NADPH] 1 (Homo sapiens, UniProt P16152); experiment: Inhibition of recombinant human CBR1 using isatin as substrate
T8 sequence (P16152 whole entry): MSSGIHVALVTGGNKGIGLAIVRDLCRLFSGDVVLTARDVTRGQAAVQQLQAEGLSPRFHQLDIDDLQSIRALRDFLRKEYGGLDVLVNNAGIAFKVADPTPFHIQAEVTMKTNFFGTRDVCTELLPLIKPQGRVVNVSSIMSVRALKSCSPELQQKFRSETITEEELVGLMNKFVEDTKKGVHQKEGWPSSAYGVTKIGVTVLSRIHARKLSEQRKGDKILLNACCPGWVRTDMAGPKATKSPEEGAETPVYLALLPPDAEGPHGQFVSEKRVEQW

[14] = target: T2, Aldo-keto reductase family 1 member B10; experiment: Inhibition of human recombinant AKR1B10 (1 to 316 residues) expressed in Escherichia coli using pyridine-3-aldehyde as substrate
[15] = target: T1, Aldo-keto reductase family 1 member B1; experiment: Inhibition of human recombinant AKR1B1 (1 to 316 residues) expressed in Escherichia coli using pyridine-3-aldehyde as substrate
[16] = target: T1, Aldo-keto reductase family 1 member B1; experiment: Inhibition of AKR1B1 (unknown origin)
[17] = target: T2, Aldo-keto reductase family 1 member B10; experiment: Inhibition of AKR1B10 (unknown origin)
[18] = target: T2, Aldo-keto reductase family 1 member B10; experiment: Inhibition of recombinant human intestinal N-terminal 6-His-tagged AKR1B10 expressed in Escherichia coli BL21 (DE3) pLysS cells using pyridine-3-aldehyde as substrate by fluorescence assay
[19] = target: T1, Aldo-keto reductase family 1 member B1; experiment: Inhibition of recombinant human AKR1B1 using pyridine-3-aldehyde as substrate by fluorescence assay

| Structure (SMILES) | IC50 [1] [µM] | IC50 [2] [µM] | other results |
| --- | --- | --- | --- |
| O=C(NCCCc1cccc(F)c1)c1cc2ccc(O)cc2oc1=O | 0.34 | 0.006 | – |
| O=C(NCCCc1ccc(O)cc1)c1cc2cccc(O)c2oc1=O | 9.5 | 1.5 | – |
| C[C@@]12CCC[C@H]1[C@@H]1C[C@@H](O)[C@@]3(O)C[C@@H](O)CC[C@]3(CO)[C@H]1CC2 | – | – | IC50 [14]: 0.83 µM; IC50 [15]: > 100 µM |
| COc1ccc(CCCNC(=O)c2cc3ccc(O)cc3oc2=O)cc1 | 0.39 | 0.011 | – |
| O=C(NCCCc1ccc(O)cc1)c1cc2ccccc2oc1=O | > 10 | 2.7 | – |
| O=C(/C=C/c1ccc(O)cc1)CC(=O)/C=C/c1ccc(O)cc1 [BISDEMETHOXYCURCUMIN] | – | – | IC50 [16]: 5.1 µM; IC50 [17]: 0.06 µM |
| C[C@H](CCC(=O)O)[C@H]1CC[C@H]2[C@@H]3CC[C@@H]4C[C@@H](O)CC[C@]4(C)[C@H]3CC[C@]12C [ISOLITHOCHOLIC ACID] | – | – | IC50 [18]: 0.027 µM; IC50 [19]: 6.9 µM |

The next lines start with results.

| IC50 [1] [µM] | IC50 [2] [µM] | Structure (SMILES) | other results |
| --- | --- | --- | --- |
| 0.098 | 0.02 | O=C(NCCc1ccc(O)cc1)c1cc2ccc(O)cc2oc1=O | – |
| 0.2 | 0.007 | Cc1ccc(CCCNC(=O)c2cc3ccc(O)cc3oc2=O)cc1 | – |
| 0.32 | 0.0078 | O=C(NCCCc1cc(F)cc(F)c1)c1cc2ccc(O)cc2oc1=O | – |
| 0.314 | 0.011 | O=C(NCCCCc1ccc(O)cc1)c1cc2ccc(O)cc2oc1=O | – |
| 0.18 | 0.0083 | O=C(NCCCc1cccc(O)c1)c1cc2ccc(O)cc2oc1=O | – |
| 0.204 | 0.0042 | O=C(NCCCc1ccc(O)cc1)c1cc2ccc(O)cc2oc1=O | Ki [3]: 0.014 µM; Ki [4]: 0.0025 µM; IC50 [5]: 0.97 µM; Ki [6]: 0.0023 µM; IC50 [7]: 0.82 µM; IC50 [8]: 1.5 µM; IC50 [9]: 1.6 µM; Ki [10]: 0.0069 µM; IC50 [11]: 0.95 µM; Ki [12]: 0.0098 µM; IC50 [13]: 4.2 µM |
| 0.015 | 0.0075 | COc1ccc(/N=c2\oc3cc(O)ccc3cc2C(=O)NCCCc2cccc(O)c2)cc1 | – |
| 0.277 | 0.0035 | O=C(NCCCc1ccc(F)cc1)c1cc2ccc(O)cc2oc1=O | IC50 [5]: 0.61 µM; IC50 [7]: 0.35 µM; IC50 [8]: 1.7 µM; IC50 [9]: 0.47 µM; IC50 [11]: 12 µM; IC50 [13]: 1.1 µM |
| 0.22 | 0.0064 | O=C(NCCCc1ccccc1O)c1cc2ccc(O)cc2oc1=O | – |
